Assay results reported in EP0090353A1, “2-Pyridone derivatives, method for their preparation and pharmaceutical compositions containing them” (priority 1982, dated 1983).

Tests used:
gastrale Ulcera = assay: Gastric ulcerogenic effect; details: ratio of UD50 (gastric ulcers) to ED50 (adjuvant arthritis), rat
From the text: Gastrale ulzerogene Wirkung
(§2) Die Untersuchungen erfolgten an jeweils 10 männlichen Sprague-Dawley Ratten im Körpergewicht von 200-300 g. 48 Stunden vor Applikation der zu vergleichenden Verbindungen bis zum Töten der Tiere wurde das Futter entzogen, bei freiem Zugang zum Trinkwasser. Die Ratten wurden 24 Stunden nach oraler Gabe getötet, der Magen entnommen, unter fließendem Wasser gereinigt und auf Schleimhautläsionen inspiziert. Als Ulzera galten alle makroskopisch sichtbaren Läsionen. Bestimmt wurde der Anteil der Tiere mit Ulzera pro dosi und die UD50 nach Lichtfield und Wilcoxon (J. Pharmacol. exp. Ther. 96, 99 (1949)).

[1] = Gastric ulcerogenic effect; details: rat, stomach, po
From the text: Gastrale ulzerogene Wirkung
as §2

Adjuvans Arthritis = assay: Adjuvant arthritis (method of Pearson); type: in vivo, männliche Ratten eines Wistar-Lewis-Stammes; details: Rattus norvegicus; male Wistar-Lewis rats, oral daily from day 1 to day 5; reduction of paw volume increase vs control; ED50 read graphically from dose-response curve
From the text: 1. Adjuvans Arthritis Die Untersuchungen wurden nach der Methode von Pearson durchgeführt (Arthrit. Rheum. 2, 440 (1959)). […] Die zu […] Verbindungen wurden täglich vom 1. bis zum 5. Versuchstag oral appliziert. Tiere einer Kontrollgruppe erhielten nur das Lösungsmittel. Pro Dosierung und in der Kontrollgruppe wurden jeweils 8 […] unbehandelten Kontrollgruppe. Die ED50-Werte wurden graphisch aus […].

[2] = system: Ratten des Sprague-Dawley-Stammes; assay: in vivo; details: ratio of LD50 (acute toxicity) to ED50 (adjuvant arthritis), rat
From the text: (§1) Die Bestimmung der akuten Toxizitäten erfolgten in Standardmethoden an Ratten des Sprague-Dawley-Stammes. Pro Dosierung wurden 6 Tiere verwendet. Die LD50-Werte wurden nach Lichtfield und Wilcoxon bestimmt. [drawing 8]

in vivo = details: rat, in vivo; Sprague-Dawley rats, 6 animals per dose; Litchfield-Wilcoxon; read-out: LD50 akute Toxizität
From the text: as §1

## CC(Oc1cccc(-c2ccccc2)n1)C(=O)O (racemic) [Beisp. 4, DL-2-(6-Phenylpyridin-2-oxy)-propansäure]
Gastrale Ulcera
  TI(UD50/ED50) therapeutischer Index: 9
[1]
  TD50 at 24 h: 175 mg/kg
Adjuvans Arthritis
  ED50: 20 mg/kg

## CC(CO)Oc1cccc(-c2ccccc2)n1 (racemic) [Beisp. 9, DL-2-(6-Phenylpyridin-2-oxy)-propanol]
[2]
  TI (LD50 /ED50) therapeutischer Index: 50
In vivo
  LD50: 1000 mg/kg
Gastrale Ulcera
  TI(UD50/ED50) therapeutischer Index: 11
[1]
  TD50 at 24 h: 220 mg/kg
Adjuvans Arthritis
  ED50: 20 mg/kg

## CCOC(=O)[C@@H](C)Oc1cccc(-c2ccccc2)n1 [Beisp. 7, D(+)-2-(6-Phenylpyridin-2-oxy)-propansäureethylester]
Gastrale Ulcera
  TI(UD50/ED50) therapeutischer Index: 8
[1]
  TD50 at 24 h: 125 mg/kg
Adjuvans Arthritis
  ED50: 15 mg/kg

## COc1ccc2cc([C@H](C)C(=O)O)ccc2c1 [Naproxen, reference compound]
Adjuvans Arthritis
  ED50: 15 mg/kg

## CC1=C(CC(=O)O)c2cc(F)ccc2/C1=C\c1ccc([S+](C)[O-])cc1 (stereo not drawn) [Sulindac, reference compound]
Gastrale Ulcera
  TI(UD50/ED50) therapeutischer Index: 2
[1]
  TD50 at 24 h: 26 mg/kg
Adjuvans Arthritis
  ED50: 13 mg/kg
